Reference: US6451334B2, “Compositions and administration of compositions for the treatment of blood disorders” (priority 1997, dated 2002)
Values joined by “and” are separate entries in the source; they are usually repeats but may differ in a detail not shown here. Identical values can stand only once. Like-named read-outs stand apart in the source and are kept apart here. Blank lines part the entries; values can stand above or below the compound they belong to.

What was measured:
[1] = tested on: mice transgenic for a human beta globin locus YAC containing a silenced gamma globin gene; experiment: In vivo experiments in mice transgenic for the human beta globin gene locus
Description: Three prototype compounds, methylhydrocinnamic acid (MHCA), phenoxyacetic acid (PAA), and dimethylbutyric acid PMB), were administered at doses from 100 to 250 mg/kg in two daily doses by intraperitoneal injection to mice transgenic for a human beta globin locus YAC containing a silenced gamma globin gene. Reticulocytes, newly synthesized red blood cells, were counted daily and non-alpha globin in MRNA was analyzed by Rnase protection. Only 50 microliters of blood were removed daily for testing. A 5 to 10-fold increase in reticulocytes and a 1.7-2.4 fold increase in gamma globin mRNA was observed within one week of therapy with the three protype compounds. In contrast, control mice to which normal saline was administered, with the same degree of phlebotomy for testing, had no significant changes in reticulocytes or globin in mRNA.

[2] = Pharmacokinetics after single oral doses in human volunteers; assay type: in vivo; details: FIG. 4, in humans, oral doses of 40-500 mg/kg
Description: (§1) Chronic indwelling venous and arterial catheters which were maintained using sterile technique for blood sampling. Compounds were administered by nasogastric tube and blood was collected to determine drug plasma levels at regular intervals following single oral doses. […] The test compounds were analyzed after ether extraction of the plasma, separation by HPLC, and quantitated by comparison to a spilled internal standard of heptanoic acid according to previously described methods.

[3] = Pharmacokinetic studies after single oral doses in baboons; details: monkey, plasma
Description: as §1

K562 cells = experiment: Treatment of K562 cells and analysis of globin mRNA by primer extension; assay type: cell-based, human; details: for fold induction at 1000 µM: Homo sapiens, K562, 72 h, read-out: increase in γ-globin mRNA over constitutive levels in untreated control K562 cells; for stimulating γ globin compared to control cells (ranking in words) / Radioactivity Alpha Globin (α) mRNA / Radioactivity Fetal Globin (γ) mRNA / γ/α: K562 cells; for Radioactivity Alpha Globin (α) mRNA / Radioactivity Fetal Globin (γ) mRNA: phosphorimager; for γ/α: ratio of globin mRNA radioactivity
Description: K562 cells kindly provided by Dr. George Atweh were cultured with 10% fetal bovine serum (Sigma, St. Louis, Mo.) and RPMI media (Grand Island Biological Company, Grand Island, N.Y.) in a humidified atmosphere with 5% CO2/95% air. Compounds were tested at a final concentration of 1 mM at neutral pH and included butyric acid, phenoxyacetic acid, dimethylbutric acid, alpha-methylhydrocionamic acid, 2,3, and 4-methoxyhydrocinnamic acid, dihydrocinnamic acid, methoxycinnamic acid, methoxyacetic acid, phenylpropionic acid, amino hydrocinnamic acid, DL β- and DL-βamino-n-butyric acid, cinnamic acid, and 2 methylhydrocinnamic acid (Aldrich Chemical Company, St. Louis, Mo.). Additional compounds studied included dimethylhydroxy acetic acid, dimethylpropionic acid, dimethylphenoxyacetic acid, and dimethylmethoxyacetic acid. After three days of culture with these agents, mRNA was purified and α, β, and γ globin mRNA was analyzed by primer extension using oligonucleotide primers and quantitation on a PhosphoImager as previously described.

bone marrow cells = details: continuous intravenous administration; cited from earlier work
thalassemic patients = experiment: Pulsed arginine butyrate infusion in thalassemic disorders; assay type: in vivo; details: 4 days with infusions about 8 hours per day, then 7 days of no treatment
Description: Individual pulses can be delivered to the patient continuously over a period of several hours, such as about 2, 4, 6, 8, 10, 12, 14 or 16 hours, or several days, such as 2, 3, 4, 5, 6, or 7 days, preferably from about 1 hour to about 24 hours and more preferably from about 3 hours to about 9 hours. Alternatively, periodic doses can be administered in a single bolus or a small number of injections of the composition over a short period of time, typically less than 1 or 2 hours. […] Substantially means that there are positive consequences that raise the patient's standard of living such as, for example, increased activity or mobility, fewer side-effects, fewer hospital stays or visits to the physician, or fewer transfusions.
Compositions administered in pulses have the surprising benefit of reducing the overall load of drug on the patient as the total amount of drug administered can be substantially less than that amount that has been therapeutically administered by conventional continuous therapy. […] Preferably, the therapeutically effective pulsed dose is less than the continuous dose, or less than one half, one third, one quarter, one fifth, one tenth or even one twentieth of the therapeutic continuous dose of the same composition or even less.

[4] = In vivo half-life of the composition
Description: The interval between pulses or the interval of no delivery is greater than 24 hours and preferably greater than 48 hours, and can be for even longer such as for 3, 4, 5, 6, 7, 8, 9 or 10 days, two, three or four weeks or even longer. As the results achieved may be surprising, the interval between pulses, when necessary, can be determined by one of ordinary skill in the art. Often, the interval between pulses can be calculated by administering another dose of the composition when the composition or the active component of the composition is no longer detectable in the patient prior to delivery of the next pulse. Intervals can also be calculated from the in vivo half-life of the composition. Intervals may be calculated as greater than the in vivo half-life, or 2, 3, 4, 5 and even 10 times greater the composition half-life.

in vivo = details: monkey, po
Description: as §1

32D cells = experiment: Proliferation studies using 32D cells at low IL-3; assay type: cell-based, murine; details: 32D cells, low IL-3 (0.5 U/ml), FIG. 7
Description: 32D cells were cultured in RPMI media with 10% fetal bovine serum (Sigma, St. Louis, Mo.), […] glutamine (GIBCO), and murine IL3 (20 U/ml) (Biosource International). Growth factor controls used included the standard concentration of IL-3 required for proliferation of these cells (25 U/ml) and a 50-fold lower concentration (0.5 U/ml), and erythropoietin (3 U/ml) or G-CSF ( U/ml), (Amgen, Thousand Oaks, Calif.). The test compounds were added at final concentrations of 1 mM. As a cell density of 2.5−10×10^5 is necessary for growth of this cell line, this density was maintained by passing the cells at three day intervals or by concentrating the cells when apoptosis occurred. Proportions of cells which were viable or apoptotic, and the fraction of cells in each part of the cell cycle was assessed by incubating the cells with Trypan blue and enumeration, and with propidium iodide incubation and FACScan analysis as previously described.
The effects of the representative compounds which have been synthesized or selected for resistance to beta oxidative metabolism and glucuronidation in stimulating γ globin gene expression in a human erythroid-like cell line and for their effects on cell growth utilizing a multi-lineage murine hematopoietic cell line, 32D. This cell line is dependent on high concentrations of IL-3 for growth. […]

[5] = tested on: Mononuclear cells from patients with sickle cell disease or thalassemia trait; experiment: Erythroid colony (BFU-E) cultures in methylcellulose; assay type: cell-based, human; details: 0.2-0.5 mM, optimal growth factors
Description: Mononuclear cells from patients with sickle cell disease or thalassemia trait were isolated on Ficoll Hypague, washed, and cultured in methylcellulose media with optimal concentrations of hematopoietic growth factors IL-3, GM-CSF, Stem Cell Factor, IL6, 3 U/ml Eiythropoietin, insulin, bovine serum albumin, and 0.2-0.5 mM concentrations of test compounds of derivatives of cinnamic acid and hydrocinnamic acid. […] The following illustrates some representative cultures: […]

anemic baboon = experiment: Hematopoietic stimulation in an anemic phlebotomized baboon; assay type: in vivo; details: administered for five days, baboon phlebotomized 5% of blood volume daily, FIG. 13
Description: An increase in multiple blood cell lineages resulted when a prototype hemokine compound (α methylhydrocinnamic acid) was administered for five days to an anemic baboon, which was being phlebotomized 5% of its blood volume daily.

[6] = tested on: system A transport of amino acids; experiment: System A transport of amino acids; assay type: cell-based
Text: Normal cell viability, the viability of an untransformed or uninfected cell, can be determined from analyzing the effects of the composition on one or more biological processes of the cell. Detrimental interference with one or more of these cellular processes becomes significant when the process becomes abnormal. Examples of quantitatable and qualifiable biological processes include the processes of cell division, protein synthesis, nucleic acid (DNA or RNA) synthesis, nucleic acid (principally DNA) fragmentation and apoptosis. Others processes include specific enzyme activities, the activities of the cellular transportation systems such as the transportation of amino acids by system A (neutral), system B (acidic) or system C (basic), and the expression of a cell surface protein. […] Abnormal cell division, for example, can be mitosis which occurs too rapidly, as in a malignancy, or unstably, resulting in programmed cell death or apoptosis, detected by increased DNA degradation. The determination of abnormal cell viability can be made on comparison with untreated control cells. Compositions preferably increase normal cell viability. Increased cell viability can be determined by those of ordinary skill in the art using, for example, DNA fragmentation analysis. […]

[7] = 100 to 250 mg/kg in two daily doses, intraperitoneal, listed as DMB

time for which plasma levels persisted in the millimolar range [2]: greater than 6 hours
half-life [3]: 6.8 h
Compound: CCC(C)(C)C(=O)O [ST 20, 2,2 dimethylbutyric acid]
Reticulocytes Peak [1, 7]: 17.7 and 21.3
γ/γ + β mRNA Peak [1, 7]: 0.36 and 0.31
γ/γ + β mRNA Day 0 ([1]; baseline of the treated animal, RNase protection, listed as DMB): 0.20 and 0.17
Reticulocytes Day 0 ([1]; baseline of the treated animal, listed as DMB): 2.4 and 4.2
fold induction at 1000 µM (K562 cells; primer extension, 1 mM, three days of culture, FIG. 1): 2.4 to 26
stimulating γ globin compared to control cells (ranking in words) (K562 cells; 1 mM): most active
Radioactivity Alpha Globin (α) mRNA (K562 cells; 1 mM): 178751
Radioactivity Fetal Globin (γ) mRNA (K562 cells; 1 mM): 1697936
γ/α (K562 cells; 1 mM): 9.5

Compound: Nc1ncn([C@@H]2O[C@H](CO)[C@@H](O)[C@H]2O)c(=O)n1 [AZA, 5-azacytidine]
increase in γ globin mRNA of bone marrow cells (bone marrow cells): five- to seven

Compound: arginine butyrate [reference compound]
Fetal hemoglobin levels (thalassemic patients): rise substantially
half-life [4]: 0.25 h
Radioactivity Alpha Globin (α) mRNA (K562 cells; 1 mM): 296132
Radioactivity Fetal Globin (γ) mRNA (K562 cells; 1 mM): 2176523
γ/α (K562 cells; 1 mM): 7.3

Compound: CC(Cc1ccccc1)C(=O)O (stereo not drawn) [ST 7, α-methylhydrocinnamic acid]
Reticulocytes Peak ([1]; 100 to 250 mg/kg in two daily doses, intraperitoneal, listed as MHCA): 17.9 and 23.3
Reticulocytes Day 0 ([1]; baseline of the treated animal, listed as MHCA): 2.9 and 2.3
half-life (in vivo): 7.6 h
increase in proliferation over 4 days (32D cells): 5 fold
Mean BFU-E/culture 4 cultures averaged (per 0.2 million cells) [5]: 223
% Increase over control ([5]; BFU-E): 32.4%
blood cell lineages (anemic baboon): increase in both white blood cells and total hemoglobin
system A transport of amino acids [6]: do not significantly alter
fold induction at 1000 µM (K562 cells): 2.4 to 26
stimulating γ globin compared to control cells (ranking in words) (K562 cells; 1 mM): most active
Radioactivity Alpha Globin (α) mRNA (K562 cells; 1 mM): 92979
Radioactivity Fetal Globin (γ) mRNA (K562 cells; 1 mM): 1648056
γ/α (K562 cells; 1 mM): 17.7
